Here are results for 8 compounds from patent US12180159B2, “Activators of the unfolded protein response” (The Board of Trustees of the University of Illinois, priority 2018, dated 2024).

Data set [1] relates to ERα Negative MCF-10A cells. The experiment in a line: Trypan Blue exclusion cell death assay, MCF-10A cells. It counts as cell-based. To be noted: 75 nM, 24 hours. The source says:
(§1) TRYPAN BLUE: For decades, viable cells have been measured by their ability to exclude the dye Trypan Blue. […] Dead cells, which have lost membrane integrity, take up the dye and are blue. Thus, the percentage of dead cells is the percentage of cells that are Trypan Blue positive out of the total cell population. Quantitative assessment of Trypan Blue uptake uses a cell counter from Fisher. Since the assay is instrument based, there is no observer bias in determining the percentage of Trypan Blue positive cells.
(§2) TRYPAN BLUE ASSAYS: Assays are performed on cells in 6 well plates: 300,000 cells are plated in each well of a 6 well plate in 3 ml of medium. After 24 hours, the DMSO vehicle or the indicated compound is added (in 1000th of the vol.) The cells incubated for an additional 24 hours, and then harvested in 0.25 ml of trypsin, followed after harvest by 0.75 ml of medium. The cells are spun down and resuspended in 100-200 μl of medium left that is over the cell pellet (resuspend cells by pipetting up and down a few times). Add 10 μl to 10 μl of trypan blue. Then 10 μl is inserted into the counting slide. After inserting the slide into the Fisher TC20 counting is automatic (these many cells are needed because an accurate ratio of Trypan Blue positive to Trypan Blue negative cells requires about 200 cells in the field the instrument counts).
In FIG. 28, neither the test compounds nor BHPI kill non-tumorigenic ERα Negative MCF-10A breast cells. ERα Negative MCF-10A cells were maintained for 24 hours in DMSO vehicle or 75 nM of BHPI or 75 nM of each of the indicated test compounds: 4, 6 and 105. Cell death was determined using the instrument-based Trypan Blue exclusion assay. (n=3±SEM).

Data set [2] deals with T47D, TYS-4 and TDG-1 cells. Briefly: MTS proliferation assay, T47D, TYS and TDG cells. Type of data set: cell-based, human. To be noted: 4 days. The procedure:
FIG. 30 compares the ability of BHPI and test compounds to inhibit proliferation of T47D, TYS and TDG cells. T47D cells were in medium containing 10 FBS (which contains estrogen), TYS-4 and TDG-1 cells were in medium containing 10% cd-FBS (estrogen depleted). Cells are plated at 2,000 cells/well in 96 well plates. After 24 hours in medium containing FBS or charcoal-dextran treated FBS (depleted of endogenous estrogens), the indicated concentration of each compound (in DMSO at 1/1000th of the volume of medium) was added. After 2 days the medium was changed, and the compounds were added again. After 2 additional days (4 days total) MTS assays are used to evaluate cell proliferation. (n=6±S.E.M.).

The next data set has as its system TYS cells (T47DERαY537S). The experiment in a line: Trypan Blue exclusion cell death assay, TYS cells. It counts as cell-based, human. As to conditions: 24 hours.
Text: as §1, §2
TYS cells were incubated for 24 hours with 35 nM of BHPI or 35 nM of each of the indicated test compounds: 2, 4, and 105. Cell death was determined using the instrument-based Trypan Blue exclusion assay. (n=3±SEM).
TYS cells were incubated for 24 hours with 50 nM of BHPI or 50 nM of each of the indicated test compounds: 4, 6 and 105. Cell death was determined using the instrument-based Trypan Blue exclusion assay. (n=3±SEM).

The test system of a further data set is TDG cells (T47DERαD538G). Briefly: Trypan Blue exclusion cell death assay, TDG cells. Type of data set: cell-based, human. To be noted: 24 hours; for killing of TDG-Luc cells: dose response.
Text: as §1, §2
The Trypan Blue cell death assay was used to evaluate the ability of the active enantiomer of C-105 [(−)-105] to kill ERα positive TDG-Luc cells. For all studies, 300,000 TDG-Luc cells/well in 10% FBS were plated in a 6 well plate in triplicate. 24 hours after plating, the indicated concentrations the active enantiomer of (−)-105, or BHPI (top) ICI, or OHT (Lower left) or (+)-105 (lower right) were added. After 24 hours, the cells were harvested, and the % dead cells was determined by automated Trypan Blue exclusion using the Countess II automated hemocytometer. Percentage of viable cells was calculated by doing 100−(Cell Death %). (n=3±SEM).
TDG cells were incubated for 24 hours with 75 nM of BHPI or 75 nM of each of the indicated test compounds: 4, 6 and (±)-105 (enantiomers not separated). Cell death was determined using the instrument-based Trypan Blue exclusion assay. Structures are in the Synthesis section. […] (n=3±SEM).

The subject of another data set is Caov-3 cells. Briefly: Cell death of Caov-3 ovarian cancer cells (automated Trypan Blue exclusion). Type of data set: cell-based, human. As to conditions: 24 hours. The procedure: FIG. 33. 105, but not BHPI, kills therapy-resistant ovarian CaOV-3 ovarian cancer cells. (±)-105; Cell death assay: Automated Trypan Blue exclusion. (24 hours post (±)-105) FIG. 34. (−)105 nearly eradicates ER+ drug-resistant tumors. Orthotopic breast cancer model, TYS-Luc cells, 40 mg/kg (−)-105 i.p., daily. 7 d Post injection image is a much longer exposure at higher gain than before injection image.
Caov3: Drug resistant ERα positive ovarian cancer cells. […] These cells are completely resistant to tamoxifen and fulvestrant and partially resistant to cisplatin and paclitaxel.

Data set [3] deals with ERα positive and ERα negative cell lines. It counts as cell-based. The procedure:
ERα positive MCF-7 breast cancer, Caov-3 ovarian cancer and ECC-1 uterine cancer cells and ERα negative MDA-MB-231 human breast cancer cells and HeLa, human cervical carcinoma cells and MCF-10A human mammary epithelial cells were plated at 10,000 cells/well (96 well plate) in 50 μl of medium. After about 18 hours, an additional 50 μl of medium containing 2× the desired final concentration of the test compound (C-105) was added to each well (final vol. 100 μl/well). After 24 hours Alamar Blue reagent was added and fluorescence in the wells was read after 1 hour (BMG PheraStar Microplate Reader). % relative death was determined by setting the reading for 10,000 nM raptinal-treated cells to 100% dead cells and the reading for vehicle-treated cells to 0% dead cells. (Data is the average±SEM of 3 independent experiments with 5 biological replicates for each sample within each independent experiment.)
FIG. 3 compares the ability of (±)-105 to kill ERα positive and ERα negative cells. The dose response tests the ability of (±)-105 to rapidly kill ERα positive and ERα negative cells. […] After 24 hours Alamar Blue reagent was added and fluorescence in the wells was read. % relative death was determined by setting the reading for […] raptinal-treated cells to 100% dead cells and the reading for vehicle-treated cells to 0% dead cells. […]

For data set [4], the system named is MCF-7 ERα Y537S-luciferase cells. The experiment in a line: Long-term cell culture experiment, MCF-7Y537S cells. It counts as cell-based, human. As to conditions: conditions as FIG. 15.
The next data set relates to OVCAR-3 cells. As to conditions: OVCAR-3 orthotopic xenograft.
The subject of data set [5] is TYS and TDG breast cancer cells. Briefly: Killing of TYS and TDG breast cancer cells by endocrine therapy drugs. It counts as cell-based, human.
Another data set relates to MCF-7 tumors. Briefly: MCF-7 orthotopic tumor model. It counts as in vivo, mouse. To be noted: mouse, in vivo. The procedure:
FIG. 39. SERK-F6 eradicates wild-type ERα tumors via hyperactivation of aUPR. a, MCF-7 orthotopic tumors were established in Nu/J ovariectomized mice supplemented with a 60 day E2 pellet (0.36 mg) and grown to ˜400 mm^3 (28 days to establish), randomized, then treated with vehicle daily (n=3), vehicle weekly (n=3), fulv. weekly (5 mg/mouse, s.c., n=6), SERK-F6 daily (10 or 40 mg/kg p.o.). Vehicle arms were averaged. p values: *: p<0.05, **: p<0.01, ***: p<0.001, ****: p<0.0001. Tumor images were taken at the end of the study (day 21) and are representative of all tumors (n=6). b-e, MCF-7 cells were orthotopically bi-laterally grafted and tumors were grown until total tumor burden was ˜ 400 mm^3 prior to daily treatment with vehicle or SERK-F6 (40 mg/kg p.o.). Mice (n=5 per arm) were sacrificed after 3 days (b,c) and 7 days (d,e) and tumors harvested. […] Vinculin (Vin) was used as a loading control. […] Error bars represent S.E.M.
FIG. 40. SERK-F6 is tolerated, reaches biologically relevant concentrations, and crosses the blood-brain barrier in vivo. a, Serum concentrations of SERK-F6 after indicated doses, route of administration, and time. Concentration was determined via LC/MS/MS analysis. […] AUC: Area Under the Curve, Cmax: maximum concentration, t1/2: half-life. c,d, Mice (CD-1) were treated with the indicated doses and times, then sacrificed and their serum and brains collected. Concentrations were determined via LC/MS/MS analysis. […] Treatment arms: vehicle daily (n=3), vehicle weekly (n=3), fulv. weekly (5 mg/mouse, s.c., n=6), SERK-F6 daily (10 or 40 mg/kg p.o.). Vehicle arms were combined. g, Mass of tumors harvested from mice. h, observed murine weight during this MCF-7 study (n=6). i,j, Tumor measurements for MCF-7 bilateral orthotopic model (n=4-5).
To probe the efficacy of SERK-F6 for killing ERα positive tumors, large MCF-7 tumors were grown and then intervened with therapy. […] The mice were then sacrificed prior to complete tumor eradication.

For the next data set, the system named is MCF-7 and TYS-Luc cells. Briefly: Cell death with 2-APB or thapsigargin (Trypan Blue exclusion). Type of data set: cell-based, human. To be noted: 2-APB. The procedure: ERα positive MCF-7 and TYS-Luc were treated with DMSO vehicle (Veh), or BHPI or (−)-105 plus or minus 2-APB for the indicated times. Cells death was determined using the instrument-based Trypan Blue exclusion assay. […] This is consistent with (−)-105 inducing powerful lethal activation of the anticipatory UPR pathway. (n=3±SEM). […] TYS-Luc cells were maintained in DMSO vehicle (Veh) or BHPI, or (−)-105 with or without thapsigargin (THG) for the indicated times. Blocking the decline in ATP levels (FIG. 19) with THG inhibited (−)-105-induced cell death. […] (n=3±SEM).

In the case of `Cc1cccc2c1NC(=O)C2(c1ccc(O)cc1)c1ccc(OC(F)(F)F)cc1` (centres unmarked) [compound 6, 3-(4-hydroxyphenyl)-7-methyl-3-(4-(trifluoromethoxy)phenyl)indolin-2-one], the “death of ERα Negative MCF-10A cells” value in data set [1] is “neither BHPI nor any of the test compounds induce significant death”. Besides, the “effectiveness in killing ERα positive breast cancer cells compared to BHPI” value (shortened to “effectiveness … compared to BHPI”) in [2] is recorded as “more effective than BHPI”.
Take `O=C1Nc2c(C(F)(F)F)cccc2C1(c1ccc(O)cc1)c1ccc(OC(F)(F)F)cc1` (racemic) [(±)-105, 3-(4-hydroxyphenyl)-3-(4-(trifluoromethoxy)phenyl)-7-(trifluoromethyl)indolin-2-one]: the “ability to kill TYS cells compared to BHPI” value in the data set on TYS cells (T47DERαY537S) (35 nM) is recorded as “greatly increased ability to kill”; in the data set on TYS cells (T47DERαY537S) (50 nM), “increased ability to kill”. For the same compound, the “ability to kill TDG cells compared to BHPI” value with TDG cells (T47DERαD538G) (75 nM) is “greatly increased ability to kill”. Also, in the data set on Caov-3 cells, the “killing of Caov-3 ovarian cancer cells” value is “kills”. Moreover, in data set [3] (0-10,000 nM, 24 hours), the “selectivity for ERα positive cancer cell lines” value is given as “selective for ERα positive cancer cell lines”. Moreover, in data set [1], the “death of ERα Negative MCF-10A cells” value is “neither BHPI nor any of the test compounds induce significant death”. The “effectiveness … compared to BHPI” value in data set [2] is listed as “more effective than BHPI”.
Consider `O=C1Nc2c(C(F)(F)F)cccc2C1(c1ccc(O)cc1)c1ccc(OC(F)(F)F)cc1` (single isomer, unassigned; (+)) [(+)-105, 3-(4-hydroxyphenyl)-3-(4-(trifluoromethoxy)phenyl)-7-(trifluoromethyl)indolin-2-one], for which the “effect on MCF-7Y537S cells in long-term experiments” value in [4] is “inactive”. Also, the “killing of TDG-Luc cells” value with TDG cells (T47DERαD538G) was “inactive and does not kill”. The “effect of the inactive enantiomer in ERα positive and ERα negative cell lines” value in [3] is “ineffective and not toxic”.
For the compound `CC(=O)O[C@H]1C(=O)[C@@]2(C)[C@H]([C@H](OC(=O)c3ccccc3)[C@]3(O)C[C@H](OC(=O)[C@H](O)[C@@H](NC(=O)c4ccccc4)c4ccccc4)C(C)=C1C3(C)C)[C@]1(OC(C)=O)CO[C@@H]1C[C@@H]2O` [paclitaxel], in the data set with OVCAR-3 cells, the “effect on tumor growth / tumors” value is recorded as “ineffective”.
`C[C@]12CC[C@@H]3c4ccc(O)cc4C[C@@H](CCCCCCCCC[S+]([O-])CCCC(F)(F)C(F)(F)F)[C@H]3[C@@H]1CC[C@@H]2O` (some centres unmarked) [fulvestrant, reference compound]: the “ability to kill TYS and TDG breast cancer cells” value in data set [5] is “no ability at all to kill”. Besides, the “effect on large established MCF-7 tumors” value in the data set on MCF-7 tumors is “dramatic effects against these large and established tumors are not obtained”. Besides, in the data set on TDG cells (T47DERαD538G), the “killing of TDG-Luc cells” value was “do not kill”.
With `CC/C(=C(\c1ccccc1)c1ccc(OCCN(C)C)cc1)c1ccccc1` [tamoxifen], the “ability to kill TYS and TDG breast cancer cells” value in data set [5] was “no ability at all to kill”.
`NCCOB(c1ccccc1)c1ccccc1` [2-APB]: the “effect on (−)-105-induced cell death” value in the data set with MCF-7 and TYS-Luc cells (45 and 60 min.) is “partially blocked”; with MCF-7 and TYS-Luc cells (30 minutes) it was “nearly completely blocked”.
As for `COc1ccc(C2(c3ccc(O)cc3)C(=O)Nc3c(C)cccc32)cc1` (centres unmarked) [compound 2, 3-(4-hydroxyphenyl)-3-(4-methoxyphenyl)-7-methylindolin-2-one], the “effectiveness … compared to BHPI” value in data set [2] was “more effective than BHPI”.
